Experimental findings from the Deep4Chem optical property database are described below.

This series is described as follows: solvent given as SMILES.

Molecules are shown by their SMILES. Values joined by “and” are separate entries in the source; they are usually repeats but may differ in a detail not shown here. Equal entries are not always repeated.

`Cc1c(C(=O)c2ccc(C(F)(F)F)cc2)c2ccc3cccc4c5cccc6ccc1c(c65)c2c34` returned a fluorescence lifetime (in ClCCl) of 1.39 ns.
Under “in Cc1ccccc1”, `CCCCCCN(CCCCCC)c1ccc(C#Cc2ccc(-c3ccc(C#Cc4ccc(N(CCCCCC)CCCCCC)cc4)cc3)cc2)cc1` displayed a fluorescence lifetime of 1 ns.
For the compound `C[Si](C)(C)c1ccc(-c2ccc(-c3ccc(-c4ccc(-c5ccc([Si](C)(C)C)s5)cc4)c4nsnc34)cc2)s1`, the fluorescence lifetime (in C1CCOC1) stood at 4.4 ns.
Take `COc1ccc(C2=C(C)C3=C(c4c(-c5ccccn5)nc5ccccn45)c4c(C)cc(C)n4[B-](F)(F)[N+]3=C2C)cc1`: for the setting “in ClCCl”, the fluorescence lifetime came out at 2.2 ns.
`COc1ccc(/C=C/c2ccccc2)cc1OC`: under “in CC#N”, the fluorescence lifetime is 0.5 ns.
Consider `Oc1ccccc1`, for which the fluorescence lifetime (in C1CCCCC1) came to 2.5 ns.
`FC(F)(F)c1ccc(-c2ccc(-c3cc(-c4ccccn4)nc(-c4ccccn4)c3)cc2)cc1` yielded a fluorescence lifetime (in ClCCl) of 1.48 ns.
In the case of `C[Si](C)(C)C#Cc1cc2ccc3cc(C#C[Si](C)(C)C)cc4ccc(c1)c2c34`, for the setting “in Cc1ccccc1”, the fluorescence lifetime was 99 ns.
Consider `COc1ccc(N(c2ccc(OC)cc2)c2cc3ccc4cc(B(c5c(C)cc(C)cc5C)c5c(C)cc(C)cc5C)cc5ccc(c2)c3c45)cc1`, for which the fluorescence lifetime is, setting by setting: (in C1CCOC1) 6.1 ns; (in CC(C)=O) 3.2 ns; (in CCCCCC) 7.7 ns; (in Cc1ccccc1) 8.7 ns; (in ClC(Cl)Cl) 6.5 ns; (in ClCCl) 6.5 ns.
For the compound `CC(=O)N(Cc1ccccn1)c1c2ccccc2c2c3c(cccc13)C(=O)N(Cc1ccccn1)C2=O`, the fluorescence lifetime (in CCO) amounted to 1.66 ns.
Consider `Nc1ccc2cn[nH]c2c1`, for which the fluorescence lifetime reads like this: (in C1CCCCC1) 4 ns; (in CC#N) 5.4 ns; (in CO) 3.1 ns; (in O) 4.4 ns.
Turning to `COC(=O)c1[nH]c(-c2ccc([N+](=O)[O-])cc2)c2nnc3ccc(OC)cc3c12`, the fluorescence lifetime (in ClCCl) worked out at 2.44 ns.
As for `Cc1cc2nc3c(=O)n(C)c(=O)nc-3n(C)c2cc1C`, for the setting “in CC#N”, the fluorescence lifetime is 7.1 ns and 6.9 ns.
With `Cc1ccsc1-c1ccc(-c2ccc(-c3sccc3C)s2)s1`, the fluorescence lifetime (in CCC(C)C) came out at 0.43 ns.
For the setting “in C1CCCCC1”, `COC(=O)c1ccc(-c2nc3ccc(N(C)C)cc3s2)cc1` displayed a fluorescence lifetime of 2.4 ns.
`CN(C)c1ccc2nc(-c3ccc(C(=O)OC(C)(C)C)cc3)sc2c1` gave a fluorescence lifetime (in C1CCCCC1) of 2.2 ns.
In turn, `O=c1c2cccc3cccc(c32)c2nc3c(F)c(F)c(F)c(F)c3n12` returned a fluorescence lifetime (in ClCCl) of 9 ns.
`CC1(C)c2ccccc2N(c2ccc(-c3ncccn3)cc2)c2ccccc21` registered a fluorescence lifetime (in O=P(c1ccccc1)(c1ccccc1)c1ccc2oc3ccc(P(=O)(c4ccccc4)c4ccccc4)cc3c2c1) of 11 ns.
For the compound `C(=C\c1c2ccccc2cc2ccccc12)/c1ccccc1`, the fluorescence lifetime by setting is: (in CC1CCCCC1) 3.6 ns; (in CC#N) 4.2 ns.
Compound `CCCCn1c(-c2ccc(-c3nnc(-c4ccc5ccccc5c4)o3)cc2)nc(-c2ccccc2)c1-c1ccccc1` displayed a fluorescence lifetime (in ClCCl) of 1.74 ns.
`N#CC(C#N)=Cc1ccc(-c2ccc(N(c3ccccc3)c3ccccc3)cc2)s1` had a fluorescence lifetime (in ClC(Cl)Cl) of 2.5 ns.
As to `Cc1cc2c(o1)c(C)cc1ccc(=O)oc12`, the fluorescence lifetime runs as follows: (in C1CCCCC1) 0.02 ns; (in C1COCCO1) 0.02 ns; (in CC#N) 0.02 ns; (in CCO) 2.3 ns; (in OCC(F)(F)F) 2.8 ns.
As to `COc1ccc2c(-c3nc(-c4ccccc4)no3)cc(=O)oc2c1`, the fluorescence lifetime came out at 6.4 ns (in CCO) and 4.8 ns (in ClC(Cl)Cl).
Take `Fc1cccc(-[c+]2c3ccccc3sc3ccccc32)c1`: the fluorescence lifetime (in CC#N) amounted to 1.3 ns.
As to `CCOC(=O)c1ccc2c(c1)[se]c1c3ccc(C(=O)OCC)cc3n(C)c21`, where the note is “in CCCO”, the fluorescence lifetime is 0.175 ns.
The compound `CCCCn1c2ccccc2c2c1c1c3ccccc3n(CCCC)c1c1c3ccccc3n(CCCC)c21` registered a fluorescence lifetime (in C1CCOC1) of 6 ns.
Where the note is “in C1CCCCC1”, `C(=C\c1nc2ccccc2s1)/c1ccccc1` had a fluorescence lifetime of 0.17 ns.
In the case of `COc1cccc(OC)c1C1=C2C(C)=CC(C)=[N+]2[B-](F)(F)n2c(C)cc(C)c21`, the fluorescence lifetime is, setting by setting: (in C1CCOC1) 5.77 ns; (in CCCCCC) 6.26 ns.
As for `CCN(CC)c1ccc2cc(-c3ccc(-c4c5ccccc5c(-c5ccc(-c6cc7ccc(N(CC)CC)cc7oc6=O)cc5)c5ccccc45)cc3)c(=O)oc2c1`, the fluorescence lifetime (in ClC(Cl)Cl) was 8.9 ns.
Under “in ClC(Cl)Cl”, `F[B-]1(F)OC(c2ccccc2)=Cc2ccc3ccccc3[n+]21` came in with a fluorescence lifetime of 1.29 ns.
On to `CCOC(=O)C1CC(c2c(C#N)c(C)nn2-c2ccccc2)=CN1c1ccc(Br)cc1` (centres undefined), for which the fluorescence lifetime was determined as 5.02 ns (in C1CCOC1); 5.29 ns (in C1COCCO1); 4.91 ns (in CC#N); 4.54 ns (in CCCCCCC); 3.66 ns (in CCO); 4.2 ns (in O). Moreover, the fluorescence lifetime was found to be 2.17 ns (in OCC(O)CO) and 2.8 ns (in OCCO).
As for `N#Cc1ccc(/C=C/c2ccc3ccc4cccc5ccc2c3c45)cc1`, the fluorescence lifetime runs as follows: (in C1CCOC1) 1.82 ns; (in CC1CCCCC1) 2.05 ns; (in CC#N) 1.68 ns; (in CO) 1.6 ns; (in Cc1ccccc1) 1.76 ns; (in ClC(Cl)Cl) 1.53 ns.
